Measured values: patent publication US8394789B2, “(Dihydro)pyrrolo[2,1-α]isoquinolines” (MSD Oss B.V., priority 2008, dated 2013)

These compounds were tested against T1, human FSH receptor (Homo sapiens, UniProt P23945) (assay: hFSHRago (CHO luc): agonistic activity at the human FSH receptor expressed in CHO cells, CRE-luciferase reporter). Conditions: CHO cells stably transfected with human FSH receptor and CRE/luciferase reporter; 4 hours of incubation.
T1 construct: expressed in transfected cells
T1 sequence (P23945 18-695): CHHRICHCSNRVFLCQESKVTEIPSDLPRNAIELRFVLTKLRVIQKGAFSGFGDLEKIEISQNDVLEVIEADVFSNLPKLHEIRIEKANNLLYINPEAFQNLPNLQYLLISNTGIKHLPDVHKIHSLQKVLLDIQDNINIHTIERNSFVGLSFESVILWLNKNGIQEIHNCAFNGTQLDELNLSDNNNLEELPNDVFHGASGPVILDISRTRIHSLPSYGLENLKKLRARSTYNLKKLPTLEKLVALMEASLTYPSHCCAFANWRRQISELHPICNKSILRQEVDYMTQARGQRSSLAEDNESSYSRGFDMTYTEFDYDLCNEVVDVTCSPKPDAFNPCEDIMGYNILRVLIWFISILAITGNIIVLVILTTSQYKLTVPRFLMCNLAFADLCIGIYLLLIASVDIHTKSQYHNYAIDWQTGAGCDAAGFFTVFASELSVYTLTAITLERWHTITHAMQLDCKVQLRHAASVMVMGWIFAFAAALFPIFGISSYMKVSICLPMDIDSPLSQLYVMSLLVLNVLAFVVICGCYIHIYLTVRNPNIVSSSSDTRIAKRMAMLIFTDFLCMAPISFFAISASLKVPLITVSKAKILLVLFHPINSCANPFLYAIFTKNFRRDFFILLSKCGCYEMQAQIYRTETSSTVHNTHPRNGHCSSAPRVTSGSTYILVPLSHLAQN
Type: cell-based
`COc1cc2c(cc1OC)-c1c(-c3ccsc3)cc(C(=O)N(C)CC(=O)N(C)CC(C)C)n1CC2` [Example 119e, 8,9-dimethoxy-1-thiophen-3-yl-5,6-dihydro-pyrrolo[2,1-α]isoquinoline-3-carboxylic acid [(isobutyl-methyl-carbamoyl)-methyl]-methyl-amide] showed an EC50 of 1080 nM. In the case of `COc1cc2c(cc1OC(C)C)-c1c(-c3cccs3)cc(C(=O)N3CCCN(C(C)=O)CC3)n1CC2` [Example 12a], the EC50 is reported as 5.2 nM. `CC#Cc1cc2c(cc1OC)CCn1c(C(=O)N(C)C(C)(C)C)cc(-c3cccs3)c1-2` [Example 85b, 8-Methoxy-9-prop-1-ynyl-1-thiophen-2-yl-5,6-dihydro-pyrrolo[2,1--α]isoquinoline-3-carboxylic acid tert-butyl-methyl-amide] gave an EC50 of 2.7 nM. `C#Cc1cc(C(=O)N2CCCN(C(=O)c3ccccc3)CC2)n2c1-c1cc(OC)c(OC)cc1CC2` [Example 109, (4-Benzoyl-[1,4]diazepan-1-yl)-(1-ethynyl-8,9-dimethoxy-5,6-dihydro-pyrrolo[2,1-α]isoquinolin-3-yl)-methanone] showed an EC50 of 76.2 nM. Compound `COC1=CC2CCn3c(C(=O)N4CCCN(C(=O)C5CCC5)CC4)cc(-c4cccs4)c3C2C=C1Br` (stereo not drawn) [Example 82, (9-Bromo-8-methoxy-1-thiophen-2-yl-5,6,6a,10a-tetrahydro-pyrrolo[2,1--α]isoquinolin-3-yl)-(4-cyclobutanecarbonyl-[1,4]diazepan-1-yl)-methanone] has an EC50 of 5.8 nM. `COc1cc2c(cc1OC(C)C)-c1c(-c3cccs3)cc(C(=O)N3CCCN(C(=O)CSC)CC3)n1CC2` [Example 2, 1-[4-(9-Isopropoxy-8-methoxy-1-thiophen-2-yl-5,6-dihydro-pyrrolo[2,1-α]isoquinoline-3-carbonyl)-[1,4]diazepan-1-yl]-2-methylsulfanyl-ethanone] gave an EC50 of 0.5 nM. With `COC(=O)NCCOc1cc2c(cc1OC)CCn1c(C(=O)N(C)C(C)(C)C)cc(-c3cccs3)c1-2` [Example 66, {2-[3-(tert-Butyl-methyl-carbamoyl)-8-methoxy-1-thiophen-2-yl-5,6-dihydro-pyrrolo[2,1-α]isoquinolin-9-yloxy]-ethyl}-carbamic acid methyl ester] the EC50 was 31.3 nM. Work on `COc1cc2c(cc1OC(C)C)-c1c(-c3nnn[nH]3)cc(C(=O)N(C)C(C)(C)C)n1CC2` [Example 38, 9-Isopropoxy-8-methoxy-1-(1H-tetrazol-5-yl)-5,6-dihydro-pyrrolo[2,1-α]isoquinoline-3-carboxylic acid tert-butyl-methyl-amide] yielded an EC50 of 1640 nM. With `CC(C)Cc1cc2c(cc1O)CCn1c(C(=O)N(C)C(C)(C)C)cc(-c3cccs3)c1-2` [Example 61, 8-Hydroxy-9-isobutyl-1-thiophen-2-yl-5,6-dihydro-pyrrolo[2,1-α]isoquinoline-3-carboxylic acid tert-butyl-methyl-amide] the EC50 was 5.2 nM. `COc1cc2c(cc1OC)-c1c(-c3cccs3)cc(C(=O)N3CC[C@@H](NC(=O)N(C)C)C3)n1CC2` [Example 106, 3-[(R)-1-(8,9-Dimethoxy-1-thiophen-2-yl-5,6-dihydro-pyrrolo[2,1-α]isoquinoline-3-carbonyl)-pyrrolidin-3-yl]-1,1-dimethyl-urea] gave an EC50 of 755 nM. `CN(C(=O)c1cc(-c2cccs2)c2n1CCc1ccc(NS(=O)(=O)N(C)C)cc1-2)C(C)(C)C` [Example 103, 9-Dimethylaminosulfonylamino-1-thiophen-2-yl-5,6-dihydro-pyrrolo[2,1-α]isoquinoline-3-carboxylic acid tert-butyl-methyl-amide] showed an EC50 of 756 nM. `COc1cc2c(cc1OC)-c1c(C3=CCCCC3)cc(C(=O)N(C)C(C)(C)C)n1CC2` [Example 110, 1-Cyclohex-1-enyl-8,9-dimethoxy-5,6-dihydro-pyrrolo[2,1-α]isoquinoline-3-carboxylic acid tert-butyl-methyl-amide] gave an EC50 of 76.5 nM. Compound `COc1cc2c(cc1OC(C)C)-c1c(-c3cccs3)cc(C(=O)N3CCCN(C(=O)C(O)C(F)(F)F)CC3)n1CC2` (stereo not drawn) [Example 4, 3,3,3-Trifluoro-2-hydroxy-1-[4-(9-isopropoxy-8-methoxy-1-thiophen-2-yl-5,6-dihydro-pyrrolo[2,1-α]isoquinoline-3-carbonyl)-[1,4]diazepan-1-yl]-propan-1-one] has an EC50 of 1.3 nM. For `CCN(C(=O)c1cc(-c2cccs2)c2n1CCc1cc(OC)c(OC(C)C)cc1-2)[C@@H]1CCCN(C(=O)C2CCC2)C1` [Example 33d, 9-Isopropoxy-8-methoxy-1-thiophen-2-yl-5,6-dihydro-pyrrolo[2,1-α]isoquinoline-3-carboxylic acid ((R)-1-cyclobutanecarbonyl-piperidin-3-yl)-ethyl-amide], the EC50 was 279 nM. `COc1cc2c(cc1NC(=O)CN(C)C)-c1c(-c3cccs3)cc(C(=O)N(C)C(C)(C)C)n1CC2` [Example 96, 9-(2-Dimethylamino-acetylamino)-8-methoxy-1-thiophen-2-yl-5,6,6 a,10a-tetrahydro-pyrrolo[2,1-α]isoquinoline-3-carboxylic acid tert-butyl-methyl-amide] was tested, and the EC50 was 2.8 nM. Work on `COc1cc2c(cc1NC(=O)CN1CCC1)-c1c(-c3cccs3)cc(C(=O)N(C)C(C)(C)C)n1CC2` [Example 97, 9-(2-Azetidin-1-yl-acetylamino)-8-methoxy-1-thiophen-2-yl-5,6-dihydro-pyrrolo[2,1-α]isoquinoline-3-carboxylic acid tert-butyl-methyl-amide] yielded an EC50 of 4 nM. For `COc1cc2c(cc1OC)-c1c(-c3cccs3)cc(C(=O)N3CCCN(C(=O)C4CCC4)CC3)n1CC2` [Example 111a, (4-Cyclobutanecarbonyl-[1,4]diazepan-1-yl)-(8,9-dimethoxy-1-thiophen-2-yl-5,6-dihydro-pyrrolo[2,1-α]isoquinolin-3-yl)-methanone], the EC50 was 2.9 nM. In the case of `COc1cc2c(cc1OC(C)C)-c1c(-c3cccs3)cc(C(=O)C(C)N3CCOCC3)n1CC2` (stereo not drawn) [Example 48, 1-(9-Isopropoxy-8-methoxy-1-thiophen-2-yl-5,6-dihydro-pyrrolo[2,1-α]isoquinolin-3-yl)-2-morpholin-4-yl-propan-1-one], the EC50 is reported as 89.4 nM. Work on `CCCCN1CCN(C(=O)c2cc(-c3cccs3)c3n2CCc2cc(OC)c(OCC(=O)OCC)cc2-3)CCC1=O` [Example 14c, [3-(4-Butyl-5-oxo-[1,4]diazepane-1-carbonyl)-8-methoxy-1-thiophen-2-yl-5,6-dihydro-pyrrolo[2,1-α]isoquinolin-9-yloxy]-acetic acid ethyl ester] yielded an EC50 of 11 nM. `COc1cc2c(cc1OC(C)C)-c1c(-c3cccs3)cc(C(=O)N3C[C@H]4C[C@@H](N(C)C(C)=O)C[C@H]4C3)n1CC2` [Example 26, N-[2-(9-Isopropoxy-8-methoxy-1-thiophen-2-yl-5,6-dihydro-pyrrolo[2,1-α]isoquinoline-3-carbonyl)-octahydro-cyclopenta[c]pyrrol-5-yl]-N-methyl-acetamide] showed an EC50 of 173 nM. `COc1cc2ccn3c(C(=O)N4CCCN(C(=O)C5CCC5)CC4)cc(-c4cccs4)c3c2cc1OC` [Example 111b, (4-Cyclobutanecarbonyl-[1,4]diazepan-1-yl)-(8,9-dimethoxy-1-thiophen-2-yl-pyrrolo[2,1-α]isoquinolin-3-yl)-methanone] showed an EC50 of 4.9 nM. `COc1cc2ccn3c(C(=O)N(C)C(C)(C)C)cc(-c4cccs4)c3c2cc1OCCO` [Example 36, 9-(2-Hydroxy-ethoxy)-8-methoxy-1-thiophen-2-yl-pyrrolo[2,1-α]isoquinoline-3-carboxylic acid tert-butyl-methyl-amide] gave an EC50 of 2.5 nM. With `COCc1c(-c2cccs2)c2n(c1C(=O)N(C)C(C)(C)C)CCc1cc(OC)c(OC(C)C)cc1-2` [Example 41, 9-Isopropoxy-8-methoxy-2-methoxymethyl-1-thiophen-2-yl-5,6-dihydro-pyrrolo[2,1-α]isoquinoline-3-carboxylic acid tert-butyl-methyl-amide] the EC50 was 2.8 nM. Work on `COc1cc2c(cc1OC(C)C)-c1c(-c3cccs3)cc(C(=O)N3CC=CC3)n1CC2` [Example 15, (2,5-Dihydro-pyrrol-1-yl)-(9-isopropoxy-8-methoxy-1-thiophen-2-yl-5,6-dihydro-pyrrolo[2,1-α]isoquinolin-3-yl)-methanone] yielded an EC50 of 249 nM. `COc1cc2c(cc1OC(C)C)-c1c(-c3cccs3)cc(C(=O)N3CCCN(S(=O)(=O)c4ccc(C)cc4)CCC3)n1CC2` [Example 17, (9-Isopropoxy-8-methoxy-1-thiophen-2-yl-5,6-dihydro-pyrrolo[2,1-α]isoquinolin-3-yl)-[5-(toluene-4-sulfonyl)-perhydro-1,5-diazocin-1-yl]-methanone] showed an EC50 of 914 nM. `COc1cc2c(cc1OC(C)C)-c1c(C3CCCC3)cc(C(=O)NC(C)(C)C)n1CC2` [Example 50, 1-Cyclopentyl-9-isopropoxy-8-methoxy-5,6-dihydro-pyrrolo[2,1-α]isoquinoline-3-tert-butylamide] gave an EC50 of 220 nM. In the case of `COc1cc2c(cc1OC(C)C)-c1c(-c3cccs3)cc(C(=O)C3CCCC3)n1CC2` [Example 46, Cyclopentyl-(9-isopropoxy-8-methoxy-1-thiophen-2-yl-5,6,6a,10a-tetrahydro-pyrrolo[2,1-α]isoquinolin-3-yl)-methanone], the EC50 is reported as 78.2 nM.
